The text below walks through data of patent US20040229791A1, “Compositions and methods of modulating TGF-beta activity by fatty acids” (priority 2002, published 2004).

What all share (type): binding
One assay addresses T1, 125I-TGF-β1-α2M* complex (Homo sapiens, UniProt P01023).
T1 construct: was purified from pooled citrate-treate human plasma; from tissue; host or cells: pooled citrate-treated human plasma
T1 sequence (P01023 24-1474): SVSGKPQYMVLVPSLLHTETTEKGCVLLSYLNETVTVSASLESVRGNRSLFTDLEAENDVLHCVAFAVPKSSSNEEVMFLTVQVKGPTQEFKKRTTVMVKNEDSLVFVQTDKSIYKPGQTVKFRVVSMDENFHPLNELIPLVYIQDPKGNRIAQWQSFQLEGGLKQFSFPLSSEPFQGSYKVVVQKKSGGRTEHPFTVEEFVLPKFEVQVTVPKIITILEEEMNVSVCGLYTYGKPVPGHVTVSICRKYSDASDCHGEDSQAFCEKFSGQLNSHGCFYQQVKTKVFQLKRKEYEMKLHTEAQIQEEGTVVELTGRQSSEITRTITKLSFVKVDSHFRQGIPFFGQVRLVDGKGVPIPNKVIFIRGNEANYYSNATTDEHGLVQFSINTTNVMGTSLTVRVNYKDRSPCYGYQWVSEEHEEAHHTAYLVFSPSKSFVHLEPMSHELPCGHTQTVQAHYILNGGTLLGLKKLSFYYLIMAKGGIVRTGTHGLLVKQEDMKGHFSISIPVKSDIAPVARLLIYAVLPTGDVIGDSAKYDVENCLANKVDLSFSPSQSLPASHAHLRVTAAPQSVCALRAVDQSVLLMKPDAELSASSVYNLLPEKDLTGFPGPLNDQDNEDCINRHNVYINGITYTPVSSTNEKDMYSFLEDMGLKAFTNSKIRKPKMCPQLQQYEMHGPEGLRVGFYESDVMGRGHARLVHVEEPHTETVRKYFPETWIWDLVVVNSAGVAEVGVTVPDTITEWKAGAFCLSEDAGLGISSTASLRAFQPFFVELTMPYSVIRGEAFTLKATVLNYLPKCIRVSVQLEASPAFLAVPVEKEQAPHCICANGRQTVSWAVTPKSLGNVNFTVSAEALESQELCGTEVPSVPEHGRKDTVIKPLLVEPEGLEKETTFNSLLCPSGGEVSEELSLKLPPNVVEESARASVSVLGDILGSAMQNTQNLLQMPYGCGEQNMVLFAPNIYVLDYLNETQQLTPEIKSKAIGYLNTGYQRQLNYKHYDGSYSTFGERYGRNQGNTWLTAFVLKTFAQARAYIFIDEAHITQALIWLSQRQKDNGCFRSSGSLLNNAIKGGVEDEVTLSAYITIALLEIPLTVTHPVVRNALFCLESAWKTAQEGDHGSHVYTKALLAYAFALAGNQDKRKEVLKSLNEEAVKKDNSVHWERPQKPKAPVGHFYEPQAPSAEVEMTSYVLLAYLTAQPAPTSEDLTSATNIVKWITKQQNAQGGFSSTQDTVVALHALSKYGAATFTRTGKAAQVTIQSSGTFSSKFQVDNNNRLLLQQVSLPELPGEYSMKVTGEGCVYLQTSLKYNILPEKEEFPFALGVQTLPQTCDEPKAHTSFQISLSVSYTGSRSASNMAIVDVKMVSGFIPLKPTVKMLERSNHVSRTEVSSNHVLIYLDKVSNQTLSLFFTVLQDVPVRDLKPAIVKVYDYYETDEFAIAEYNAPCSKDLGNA
The experiment in a line: Dissociation of preformed 125I-TGF-β1-α2M* complex. The settings on record: added after 30 min preincubation of complex. On the procedure: To determine whether fatty acids are capable of dissociating TGF- ? - ? 2M* complexes, various concentrations of arachidonic acid were added to a reaction mixture containing ^125I-TGF- ? 1 or ^125I-TGF ? β3 and α2M* which had been preincubated at room temperature for 30 mi 30 minutes at room temperature, the ^125I-TGF ? β isoform-α2M* complexes in the reaction mixtures were analyzed by 5% non-denaturing PAGE. […] However, lower concentrations of arachidonic acid were effective in inhibiting complex formation of ^125I-TGF- ? 1 and α2M* than were required to dissociate the ^125I-TGF- ? 1- ? 2M* complex.

Assay [1] deals with T2, α2M* and nerve growth factor (NGF) (Homo sapiens, UniProt P01023).
T2 sequence (P01023 24-1474): T1 sequence (P01023 24-1474)
Put plainly: Complex formation between α2M* and nerve growth factor.

Another assay addresses T3, TGF-β1-α2M* complex (Homo sapiens, UniProt P01023).
T3 construct: was purified from pooled citrate-treate human plasma; from tissue; host or cells: pooled citrate-treated human plasma
T3 sequence (P01023 24-1474): T1 sequence (P01023 24-1474)
The experiment in a line: Inhibition of 125I-TGF-β1 and α2M* complex formation (5% non-denaturing PAGE, autoradiography). The following applies: ~1 nM 125I-TGF-β1, 10 μg α2M* in 0.05 ml, 30 min room temperature, non-denaturing PAGE; read-out: IC50 for inhibiting complex formation between TGF-β1 and α2M*. On the procedure: Saturated and unsaturated fatty acids are present in plasma and tissues (25,26). The effects of various concentrations of saturated fatty acids on the formation of complexes between ^125I-TGF ? β1 and ? 2M* were examined. ^125I-TGF- ? 1 (1 nM) was incubated μg/ml) in the presence of various concentrations of n-caprylic acid ([…]), lauric acid (12 carbon atoms), myristic acid (14 carbon atoms), palmitic acid (16 carbon atoms) and stearic acid (18 carbon atoms). After 30 min at room temperature, the reaction mixture was analyzed by 5% non-denaturing PAGE and autoradiography, a standard method form determining complex formation between TGF-β and α2M* (12). […] At 100 μM, it inhibited 20% of the complex formation between TGF ? β1 and α2M*. Esterification consistently abolished the inhibitory activities of the fatty acids.
Complex formation of ^125I-TGF-β and ? 2M*—The reaction mixture contained 10 μg of . α2M*, ˜1 nM of ^125I-TGF- ? 1, ^125I-TGF ? β2 or ^125I-TGF ? acids (dissolved in 100% ethanol) in 0.05 ml of 50 mM HEPES-NaOH buffer, pH 7.4. The final concentration of ethanol in the reaction mixture was 0.5%. These fatty acids and fatty acid derivatives were soluble under the experimental conditions. After 30 min at room temperature, the complex formation of ^125I-TGF- ? and. α2M* was determined by 5% non-denaturing polyacrylamide gel electrophoresis (PAGE) or by 7.5% SDS-PAGE following cross-linking by 0.6 mM DSS. After electrophoresis, the gel was stained with Coomassie blue and analyzed by autoradiography. The ^125I-TGF- ? - ? 2M* complex which co-migrated with free ? 2M* was quantified using a PhosphoImager (Fuji).

Assay [2] concerns the target T4, α2M* and basic fibroblast growth factor (bFGF) (Homo sapiens, UniProt P01023).
T4 sequence (P01023 24-1474): T1 sequence (P01023 24-1474)
Put plainly: Complex formation between α2M* and basic fibroblast growth factor.

The target of another assay is T5, 125I-TGF-β2-α2M* complex (Homo sapiens, UniProt P01023).
T5 construct: was purified from pooled citrate-treate human plasma; from tissue; host or cells: pooled citrate-treated human plasma
T5 sequence (P01023 24-1474): T1 sequence (P01023 24-1474)
Put plainly: Dissociation of preformed 125I-TGF-β2-α2M* complex. The following applies: added after 30 min preincubation of complex.

Usually IC50 stands for the concentration that inhibits the measured activity by half.

With `CCCCC/C=C\C/C=C\C/C=C\C/C=C\CCCC(=O)O` [arachidonic acid], the “dissociation of the 125I-TGF-β1-α2M* complex” value on 125I-TGF-β1-α2M* complex is “able to dissociate”. Moreover, the “blocking of complex formation between α2M* and NGF” value in assay [1] is listed as “block complex formation”. In addition, the IC50 on TGF-β1-α2M* complex was found to be 7.8 ± 1.4 µM. In addition, in assay [2], the “blocking of complex formation between α2M* and bFGF” value is recorded as “block complex formation”. Besides, at 125I-TGF-β2-α2M* complex, the “concentration dissociating the 125I-TGF-β2-α2M* complex” value is 250 µM.
